Source: patent US20060228384A1, “Control of biofilm with a biofilm inhibitor” (Sequoia Sciences, Inc., priority 2005, published 2006)

How the values were obtained:
[1] = system: biofilm; experiment: Biofilm Inhibition Assay (compound library screening and analogs, methods as in Example 1); assay type: cell-based; conditions: tested as mentioned in Example 1
Description: As is evident from the Biofilm Inhibiton Assay results presented in Table 1, one compound from Hit 39, SF382 confirmed biofilm inhibition after purification. […] Thus, the percentage of bacteria attached (within the biofilm) versus free-floating compared to untreated (negative) control has shifted toward free-floating upon addition of the treatment. Compound SF382 was particularly active, reducing the formation of biofilm by 50% compared to negative control. Compound SF382 is represented by structure (I).
(§1) In vitro biofilm inhibition was evaluated using a high-throughput method. This method uses standard pre-sterilized 96-well polystyrene microtiter plates. Each well was filled to a final volume of 200 μl. Initially, a concentrated compound solution is transferred into each well, except those which are used as controls, to achieve an appropriate testing concentration, typically 10 μg/ml. 150 μl of sterile media was then added, followed by 50 μl of bacterial inoculum. The plates were then placed on a shaker for 24 hours.
After the allotted growth time, the samples were removed from the shaker, rinsed and stained. The rinse involves first draining the wells, filling each well with PBS, and draining each well again. The rinse removes suspended cells from the system. […] The plate was then immediately analyzed with a microtiter plate reader. The samples and controls were analyzed in triplicate. […]

[2] = system: Gram-positive bacteria; conditions: cited from earlier work
[3] = system: Pseudomonas aeruginosa strain PAO1; experiment: Rotating disk reactor biofilm with tobramycin, CFU enumeration (Example 5); assay type: cell-based; conditions: palmitoleic acid approx. 100 μg/ml 24 h then tobramycin 100 μg/ml 2 h; combined treatment compared to tobramycin alone
Description: Biofilm formation of P. aeruginosa was evaluated using a standardized biofilm method with a rotating disk reactor (RDR). This method provides a model resembling the formation of biofilms in cystic fibrosis patients. The rotating disk reactor consists of a one-liter glass beaker fitted with a drain spout. The bottom of the vessel contains a magnetically driven rotor with six 1.27 cm diameter coupons constructed from polystyrene. The rotor consists of a star-head magnetic stir bar upon which a disk was affixed to hold the coupons. The vessel with the stir bar was placed on a stir plate and rotated to provide fluid shear. A nutrient solution (AB Trace Medium with 0.3 mM glucose, see Table 3 below for composition) was added through a stopper in the top of the reactor at a flow rate of 5 ml/min. The reactor volume was approximately 180 ml and varied slightly between reactors depending on the placement of the drain spout and the rotational speed of the rotor. At a volume of 180 ml, the residence time of the reactors was 36 minutes. The reactors were operated at room temperature (c.a. 26° C.).
For each test, two RDRs were operated in parallel with one receiving palmitoleic acid and the other serving as an untreated control. […] The plates were incubated for 24 hours at 37° C. before colony forming units (CFU) were determined.

[4] = In vivo PK study in rats (Example 9); set-up: species or system rat; conditions: plasma
Description: Two groups of animals were prepared to evaluate palmitoleic acid. Palmitoleic acid was evaluated for two dose routes consisting of 50 mg/kg (IV) and 100 mg/kg (Oral). Three animals were assigned to the IV route group and two animals were assigned to the oral route group. Prior to dosing, a baseline blood sample was taken from each animal. At time zero, a single bolus dose of palmitoleic acid in 10% Cremophor (BASF) was given to each animal. Blood samples were taken from each animal at 1, 4, 12 and 24 hours post dosing. All blood samples were processed to plasma.
The plasma samples were extracted by adding internal standard at a concentration of 10 μg/mL to achieve a final concentration of 2 μg/mL when reconstituted. A solution of 80:20 methanol:chloroform was used to cause protein precipitation. The samples were then vortexed and centrifuged. The supernatant was decanted and the solvent was evaporated off. Samples were then analyzed and quantified by LC/MS.

[5] = system: Streptococcus mutans 25175; experiment: Biofilm growth inhibition in polycarbonate tubes (Example 8); assay type: cell-based; conditions: 80 μg/mL
[6] = system: Gram-negative bacteria such as Pseudomonas aeruginosa, and Escherichia coli; conditions: also P. acnes and several methicillin-resistant S. aureus strains; cited from earlier work
[7] = system: Propionibacterium acnes; conditions: each compound alone; cited from earlier work
[8] = system: methicillin-resistant Staphylococcus aureus ATCC 33591; experiment: Antibacterial effect, NCCLS procedures (Example 3); assay type: cell-based; conditions: ATCC33591, studied at 32 μg/mL, read-out: MIC (minimal inhibitory concentration)
Description: (§2) Using the appropriate NCCLS procedures, the antibacterial effect of palmitoleic acid on two strains of methicillin-resistant Staphylococcus aureus (ATCC 33591 and 78-13607A) was studied at 32 μg/mL.

[9] = system: methicillin-resistant Staphylococcus aureus 78-13607A; experiment: Antibacterial effect, NCCLS procedures (Example 3); assay type: cell-based; conditions: studied at 32 μg/mL, read-out: MIC (minimal inhibitory concentration)
Description: as §2

[10] = system: clinical strains of Staphylococcus aureus; conditions: 100 ug/ml; cited from earlier work
[11] = system: Streptococcus sobrinus 6715; experiment: Biofilm growth inhibition in polycarbonate tubes (Example 8); assay type: cell-based; conditions: 80 μg/mL
[12] = system: P. acnes; conditions: 125 ug/ml; cited from earlier work
[13] = system: Pseudomonas aeruginosa PA01; experiment: In vitro biofilm inhibition, 96-well plate, crystal violet (Example 1); assay type: cell-based; conditions: 10 μg/mL, 24 hours
Description: as §1
(§3) After the allotted growth time, the samples were removed from the shaker, rinsed and stained. The rinse involves first draining the wells, filling each well with PBS, and draining each well again. The rinse removes suspended cells from the system. The biofilm was then stained with crystal violet for 20 minutes. The wells were each rinsed 4 times to remove any excess stain from the system and then eluted with 250 μl of ethanol. The elution step improves the detection of the stain during the analyses. The plate was then immediately analyzed with a microtiter plate reader. The samples and controls were analyzed in triplicate. Each plate contains negative and positive controls. The test samples were compared to the positive and negative controls to detect any reduction in the total amount of biofilm.

[14] = system: Staphylococcus epidermidis ATCC 29641; experiment: as above; assay type: cell-based; conditions: ATCC29641, 10 μg/mL, 24 hours
Description: as §1, §3

[15] = system: Escherichia coli UTI89; experiment: Biofilm inhibition dose response, clinical strain (Example 4); assay type: cell-based; conditions: LB media, compared to controls
Description: (§4) Biofilm inhibition experiments were conducted using an assay adapted from the reported protocol described in Pratt and Kolter, 1998, Molecular Microbiology, 30: 285-293; Li et al., 2001, J. Bacteriol., 183: 897-908. E. coli JM109 was grown in LB with or without 0.2% glucose in 96 well plates at 37° C. for two days without shaking. To quantify the biofilm mass, the suspension culture was poured out and the biofilm was washed three times with water. The biofilm was stained with 0.1% crystal violet for 20 minutes. The plates were then washed three times with water. OD reading at 540 nm was measured to quantify the biofilm mass at the bottom of the wells. Then 95% ethanol was added to dissolve the dye at the bottom and on the wall and the OD reading at 540 nm was measured to quantify the total biofilm mass. To study the overall effect of palmitoleic acid (3.6 mg/mL in 100% ethanol as stock solution), it was added with the inoculation and a time course of biofilm mass was measured. To study if the compound can cause biofilm removal, it was added one day after inoculation. Appropriate amounts of 100% ethanol were added to each sample to eliminate the effect of solvent. Four plates were prepared for each study to give a time course. Each condition had 3-4 replicates on each plate.
Dose response experiments were conducted on palmitoleic acid as described in Example 2 at 4, 8, 16, and 32 ug/mL with E. coli UT189 in LB media.

[16] = system: Escherichia coli JM109; experiment: Biofilm formation and growth of wild-type E. coli JM109 (Example 2); assay type: cell-based; conditions: compared to controls
Description: as §4

[17] = system: human hepatocellular carcinoma cells (HepG2); experiment: In vitro cytotoxicity assessment (Example 7); assay type: cell-based; conditions: 30 or 60 μM, fluorometric detection of mitochondrial activity
Description: Palmitoleic acid was tested to assess its cytotoxicity in human hepatocellular carcinoma cells (HepG2). Palmitoleic acid was tested at two concentrations of 30 and 60 μM in HepG2 cells in triplicate. Gross cytotoxicity was assayed by fluorometric detection in response to mitochondrial activity according to Nociari M M, et al. (1998) J. Immunol. Met. 213:157. Chlorpromazine was used as a positive control.

With `CCCCCCCCCCCCCCCC(=O)O` [palmitic acid] the “inhibition of the formation of biofilms” value [1] was “does not inhibit the formation of biofilms”.

In the case of `CCCCCC/C=C\CCCCCCCC(=O)O` [palmitoleic acid], the “typical minimal inhibitory concentration (MIC) value” ([2]; growth of Gram-positive bacteria) is listed as 10 to 20 µg/mL, the “synergistic effect with mupirocin” value ([2]; palmitoleic acid and mupirocin against Gram-positive bacteria) is listed as “no synergistic effect was observed” and the “reduction of CFUs” value [3] is listed as 60%. The AUC ([4]; IV 50 mg/kg single bolus in 10% Cremophor) was 123 µg/mL/h, the AUC ([4]; oral 100 mg/kg single dose in 10% Cremophor) was 219.71 µg/mL/h and the inhibition at 80 µg/mL [5] was > 75%. For the same compound, the growth inhibition [6] was “could not inhibit the growth”, the “growth inhibition, compound alone” value [7] was “neither compound alone could effectively inhibit the growth” and the MIC [8] was > 32 µg/mL. For the same compound, the MIC [9] was > 32 µg/mL, the inhibitory effect [10] was “no inhibitory effect” and the inhibition at 80 µg/mL [11] was > 75%. For the same compound, the growth inhibition [12] was “failed to inhibit the growth”, the inhibition at 10 µg/mL [13] was 55% and the inhibition at 10 µg/mL [14] was 80%. The inhibition at 4 µg/mL ([15]; 4 μg/mL) was ~10%, the inhibition at 8 µg/mL ([15]; 8 μg/mL) was ~55% and the inhibition at 16 µg/mL ([15]; 16 μg/mL) was ~70%. The inhibition at 32 µg/mL ([15]; 32 μg/mL) was ~80%, the “inhibition of total biofilm formation (reduction)” value ([16]; approximately 20 μM, added with inoculation) was “about 60%” and the “inhibitory effect on growth” value [16] was “no inhibitory effect”. For the same compound, the cytotoxicity [17] was “not observed”.

For `Cc1ncc([N+](=O)[O-])n1CCO` [metranidazole, reference compound], the “growth inhibition, compound alone” value [7] is given as “neither compound alone could effectively inhibit the growth”.
